Test results from the NIST ThermoML archive (doi:10.1016/j.jct.2017.03.006).

Experiment: xn = mol fraction of the nth substance listed
Conditions: Liquid; for viscosity: Concentric cylinders viscometry; for mass density: Vibrating tube method

Cc1ccc(C)c(C)c1 [1,2,4-trimethylbenzene] + CCCCO
Conditions	mass density [kg/m3]	viscosity [mPa·s]
313.15 K, 100 kPa, x2 = 0	859	–
313.15 K, 100 kPa, x2 = 0.1005	853.7	–
313.15 K, 100 kPa, x2 = 0.2261	847.1	–
313.15 K, 100 kPa, x2 = 0.2999	843.2	–
313.15 K, 100 kPa, x2 = 0.3966	837.7	–
313.15 K, 100 kPa, x2 = 0.5289	829.9	–
313.15 K, 100 kPa, x2 = 0.53	–	0.882
313.15 K, 100 kPa, x2 = 0.6367	822.9	–
313.15 K, 100 kPa, x2 = 0.637	–	0.994
313.15 K, 100 kPa, x2 = 0.7249	816.8	–
313.15 K, 100 kPa, x2 = 0.7975	–	1.254
313.15 K, 100 kPa, x2 = 0.7977	811.4	–
313.15 K, 100 kPa, x2 = 0.9131	802	1.516
313.15 K, 1000 kPa, x2 = 0	859.7	–
313.15 K, 1000 kPa, x2 = 0.1005	854.4	–
313.15 K, 1000 kPa, x2 = 0.2261	847.8	–
313.15 K, 1000 kPa, x2 = 0.2999	843.9	–
313.15 K, 1000 kPa, x2 = 0.3966	838.4	–
313.15 K, 1000 kPa, x2 = 0.5289	830.6	–
313.15 K, 1000 kPa, x2 = 0.6367	823.6	–
313.15 K, 1000 kPa, x2 = 0.7249	817.5	–
313.15 K, 1000 kPa, x2 = 0.7977	812	–
313.15 K, 1000 kPa, x2 = 0.9131	802.8	–
313.15 K, 5000 kPa, x2 = 0	862.6	–
313.15 K, 5000 kPa, x2 = 0.1005	857.3	–
313.15 K, 5000 kPa, x2 = 0.2261	850.7	–
313.15 K, 5000 kPa, x2 = 0.2999	846.9	–
313.15 K, 5000 kPa, x2 = 0.3966	841.5	–
313.15 K, 5000 kPa, x2 = 0.5289	833.7	–
313.15 K, 5000 kPa, x2 = 0.6367	826.7	–
313.15 K, 5000 kPa, x2 = 0.7249	820.6	–
313.15 K, 5000 kPa, x2 = 0.7977	815.2	–
313.15 K, 5000 kPa, x2 = 0.9131	805.9	–
313.15 K, 10000 kPa, x2 = 0	866	–
313.15 K, 10000 kPa, x2 = 0.1005	860.8	–
313.15 K, 10000 kPa, x2 = 0.2261	854.3	–
313.15 K, 10000 kPa, x2 = 0.2999	850.5	–
313.15 K, 10000 kPa, x2 = 0.3966	845.1	–
313.15 K, 10000 kPa, x2 = 0.5289	837.3	–
313.15 K, 10000 kPa, x2 = 0.6367	830.4	–
313.15 K, 10000 kPa, x2 = 0.7249	824.3	–
313.15 K, 10000 kPa, x2 = 0.7977	818.9	–
313.15 K, 10000 kPa, x2 = 0.9131	809.7	–
313.15 K, 20000 kPa, x2 = 0	872.6	–
313.15 K, 20000 kPa, x2 = 0.1005	867.5	–
313.15 K, 20000 kPa, x2 = 0.2261	861	–
313.15 K, 20000 kPa, x2 = 0.2999	857.2	–
313.15 K, 20000 kPa, x2 = 0.3966	851.9	–
313.15 K, 20000 kPa, x2 = 0.5289	844.1	–
313.15 K, 20000 kPa, x2 = 0.6367	837.3	–
313.15 K, 20000 kPa, x2 = 0.7249	831.2	–
313.15 K, 20000 kPa, x2 = 0.7977	825.8	–
313.15 K, 20000 kPa, x2 = 0.9131	816.7	–
313.15 K, 30000 kPa, x2 = 0	878.7	–
313.15 K, 30000 kPa, x2 = 0.1005	873.8	–
313.15 K, 30000 kPa, x2 = 0.2261	867.4	–
313.15 K, 30000 kPa, x2 = 0.2999	863.6	–
313.15 K, 30000 kPa, x2 = 0.3966	858.3	–
313.15 K, 30000 kPa, x2 = 0.5289	850.6	–
313.15 K, 30000 kPa, x2 = 0.6367	843.7	–
313.15 K, 30000 kPa, x2 = 0.7249	837.7	–
313.15 K, 30000 kPa, x2 = 0.7977	832.4	–
313.15 K, 30000 kPa, x2 = 0.9131	823.2	–
313.15 K, 40000 kPa, x2 = 0	884.5	–
313.15 K, 40000 kPa, x2 = 0.1005	879.6	–
313.15 K, 40000 kPa, x2 = 0.2261	873.2	–
313.15 K, 40000 kPa, x2 = 0.2999	869.5	–
313.15 K, 40000 kPa, x2 = 0.3966	864.1	–
313.15 K, 40000 kPa, x2 = 0.5289	856.5	–
313.15 K, 40000 kPa, x2 = 0.6367	849.7	–
313.15 K, 40000 kPa, x2 = 0.7249	843.7	–
313.15 K, 40000 kPa, x2 = 0.7977	838.4	–
313.15 K, 40000 kPa, x2 = 0.9131	829.4	–
313.15 K, 50000 kPa, x2 = 0	889.9	–
313.15 K, 50000 kPa, x2 = 0.1005	885	–
313.15 K, 50000 kPa, x2 = 0.2261	878.7	–
313.15 K, 50000 kPa, x2 = 0.2999	875	–
313.15 K, 50000 kPa, x2 = 0.3966	869.7	–
313.15 K, 50000 kPa, x2 = 0.5289	862.1	–
313.15 K, 50000 kPa, x2 = 0.6367	855.3	–
313.15 K, 50000 kPa, x2 = 0.7249	849.4	–
313.15 K, 50000 kPa, x2 = 0.7977	844	–
313.15 K, 50000 kPa, x2 = 0.9131	835	–
313.15 K, 60000 kPa, x2 = 0	895	–
313.15 K, 60000 kPa, x2 = 0.1005	890.2	–
313.15 K, 60000 kPa, x2 = 0.2261	883.9	–
313.15 K, 60000 kPa, x2 = 0.2999	880.2	–
313.15 K, 60000 kPa, x2 = 0.3966	875	–
313.15 K, 60000 kPa, x2 = 0.5289	867.4	–
313.15 K, 60000 kPa, x2 = 0.6367	860.6	–
313.15 K, 60000 kPa, x2 = 0.7249	854.7	–
313.15 K, 60000 kPa, x2 = 0.7977	849.3	–
313.15 K, 60000 kPa, x2 = 0.9131	840.3	–
313.15 K, 70000 kPa, x2 = 0	899.9	–
313.15 K, 70000 kPa, x2 = 0.1005	895.2	–
313.15 K, 70000 kPa, x2 = 0.2261	888.9	–
313.15 K, 70000 kPa, x2 = 0.2999	885.2	–
313.15 K, 70000 kPa, x2 = 0.3966	880	–
313.15 K, 70000 kPa, x2 = 0.5289	872.5	–
313.15 K, 70000 kPa, x2 = 0.6367	865.6	–
313.15 K, 70000 kPa, x2 = 0.7249	859.8	–
313.15 K, 70000 kPa, x2 = 0.7977	854.4	–
313.15 K, 70000 kPa, x2 = 0.9131	845.4	–
313.15 K, 80000 kPa, x2 = 0	904.6	–
313.15 K, 80000 kPa, x2 = 0.1005	899.9	–
313.15 K, 80000 kPa, x2 = 0.2261	893.7	–
313.15 K, 80000 kPa, x2 = 0.2999	890.1	–
313.15 K, 80000 kPa, x2 = 0.3966	884.8	–
313.15 K, 80000 kPa, x2 = 0.5289	877.3	–
313.15 K, 80000 kPa, x2 = 0.6367	870.5	–
313.15 K, 80000 kPa, x2 = 0.7249	864.6	–
313.15 K, 80000 kPa, x2 = 0.7977	859.3	–
313.15 K, 80000 kPa, x2 = 0.9131	850.3	–
313.15 K, 90000 kPa, x2 = 0	909	–
313.15 K, 90000 kPa, x2 = 0.1005	904.4	–
313.15 K, 90000 kPa, x2 = 0.2261	898.1	–
313.15 K, 90000 kPa, x2 = 0.2999	894.5	–
313.15 K, 90000 kPa, x2 = 0.3966	889.2	–
313.15 K, 90000 kPa, x2 = 0.5289	881.9	–
313.15 K, 90000 kPa, x2 = 0.6367	875.1	–
313.15 K, 90000 kPa, x2 = 0.7249	869.1	–
313.15 K, 90000 kPa, x2 = 0.7977	863.8	–
313.15 K, 90000 kPa, x2 = 0.9131	854.8	–
313.15 K, 100000 kPa, x2 = 0	913.3	–
313.15 K, 100000 kPa, x2 = 0.1005	908.7	–
313.15 K, 100000 kPa, x2 = 0.2261	902.5	–
313.15 K, 100000 kPa, x2 = 0.2999	898.8	–
313.15 K, 100000 kPa, x2 = 0.3966	893.6	–
313.15 K, 100000 kPa, x2 = 0.5289	886.2	–
313.15 K, 100000 kPa, x2 = 0.6367	879.4	–
313.15 K, 100000 kPa, x2 = 0.7249	873.5	–
313.15 K, 100000 kPa, x2 = 0.7977	868.2	–
313.15 K, 100000 kPa, x2 = 0.9131	859.2	–
313.15 K, 120000 kPa, x2 = 0	921.4	–
313.15 K, 120000 kPa, x2 = 0.1005	916.9	–
313.15 K, 120000 kPa, x2 = 0.2261	910.7	–
313.15 K, 120000 kPa, x2 = 0.2999	907.1	–
313.15 K, 120000 kPa, x2 = 0.3966	901.9	–
313.15 K, 120000 kPa, x2 = 0.5289	894.5	–
313.15 K, 120000 kPa, x2 = 0.6367	887.7	–
313.15 K, 120000 kPa, x2 = 0.7249	881.8	–
313.15 K, 120000 kPa, x2 = 0.7977	876.5	–
313.15 K, 120000 kPa, x2 = 0.9131	867.5	–
313.15 K, 140000 kPa, x2 = 0	928.9	–
313.15 K, 140000 kPa, x2 = 0.1005	924.3	–
313.15 K, 140000 kPa, x2 = 0.2261	918.7	–
313.15 K, 140000 kPa, x2 = 0.2999	914.5	–
313.15 K, 140000 kPa, x2 = 0.3966	909.6	–
313.15 K, 140000 kPa, x2 = 0.5289	902.2	–
313.15 K, 140000 kPa, x2 = 0.6367	895.5	–
313.15 K, 140000 kPa, x2 = 0.7249	889.6	–
313.15 K, 140000 kPa, x2 = 0.7977	884.4	–
313.15 K, 140000 kPa, x2 = 0.9131	875.3	–
323.15 K, 100 kPa, x2 = 0	–	0.62
323.15 K, 100 kPa, x2 = 0.1002	–	0.615
323.15 K, 100 kPa, x2 = 0.2327	–	0.631
323.15 K, 100 kPa, x2 = 0.3	–	0.653
323.15 K, 100 kPa, x2 = 0.3969	–	0.683
323.15 K, 100 kPa, x2 = 0.53	–	0.754
323.15 K, 100 kPa, x2 = 0.637	–	0.835
